Usually inhibition stands for how much of the control response was suppressed. Lower therefore signals a weak effect.

Test [1] has as its target T1, YADH (Saccharomyces cerevisiae, UniProt P00330).
T1 sequence (P00330 1-348): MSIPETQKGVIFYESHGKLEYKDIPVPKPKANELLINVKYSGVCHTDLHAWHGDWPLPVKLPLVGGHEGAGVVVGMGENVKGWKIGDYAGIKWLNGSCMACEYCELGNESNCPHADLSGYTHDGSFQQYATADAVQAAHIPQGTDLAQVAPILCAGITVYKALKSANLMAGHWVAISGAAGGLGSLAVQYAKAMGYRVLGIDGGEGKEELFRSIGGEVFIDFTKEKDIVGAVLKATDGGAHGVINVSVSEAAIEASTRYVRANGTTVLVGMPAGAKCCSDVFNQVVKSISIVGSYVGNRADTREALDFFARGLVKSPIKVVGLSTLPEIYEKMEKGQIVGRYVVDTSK
The test is described as follows: Inhibition/inactivation of YADH in solution by incubation with aldehyde. The format is biochemical, yeast. The source says:
The enzymatic reduction of aldehydes may, however, present a serious problem due to the aldehyde, whilst being a substrate for the enzyme, being a potent irreversible inhibitor.

The target in test [2] is T2, Horse liver alcohol dehydrogenase or HLADH (Equus caballus, UniProt P00327).
T2 construct: whether it is derived from yeast (i.e. is a YADH) from horse liver (HLADH), or from another source; from tissue; host or cells: horse liver
T2 sequence (P00327 whole entry): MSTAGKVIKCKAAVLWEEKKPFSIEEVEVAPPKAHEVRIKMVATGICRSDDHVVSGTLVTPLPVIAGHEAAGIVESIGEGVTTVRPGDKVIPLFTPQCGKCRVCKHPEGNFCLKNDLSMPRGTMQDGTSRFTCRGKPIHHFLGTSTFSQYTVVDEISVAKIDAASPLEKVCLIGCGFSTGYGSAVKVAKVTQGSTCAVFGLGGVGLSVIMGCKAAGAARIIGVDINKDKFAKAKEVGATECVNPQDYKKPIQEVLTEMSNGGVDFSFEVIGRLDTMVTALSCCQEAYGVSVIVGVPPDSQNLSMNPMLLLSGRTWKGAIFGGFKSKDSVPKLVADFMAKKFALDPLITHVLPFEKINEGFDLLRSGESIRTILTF
The test is described as follows: Example 4: activity of immobilised HLADH in the reduction of aldehydes (NADH absorbance decrease at 380 nm). The format is biochemical. The following applies: aldehyde as substrate (2mM), NADH (1mM), pH 7.0, 22 °C, initial rate over 2 minutes. On the procedure:
Horse liver alcohol dehydrogenase or HLADH (50 mg; 1 U/mg) was reacted with swelled CNBr-activated Sepharose 4B (Registered Trade Mark) beads (0.8 g).
The activity of the immobilised enzyme in the reduction of aldehydes to alcohols was determined in coupling buffer (0.1 M; pH 7.0) at 22 (+2)°C as the initial rate of decrease in absorbance at 380 nm over a 2 minute time period using NADH (lmM) and aldehyde (2mM).

Test [3] deals with T3, immobilised HLADH (Equus caballus, UniProt P00327).
T3 construct: whether it is derived from yeast (i.e. is a YADH) from horse liver (HLADH), or from another source; from tissue; host or cells: horse liver
T3 sequence (P00327 whole entry): as above
As to the kind of experiment: Example 5: inhibition of immobilised HLADH by aldehydes. The following applies: (b) immobilised HLADH; assay using the aldehyde used in pre-incubation. The format is biochemical, horse. The protocol: (§1) In order to test the inhibition of the immobilised enzyme by aldehyde, the beads (50 - 60 µl) were incubated with trans-cinnamaldehyde ([…]; 10 mM) and a coupling buffer (3.95 ml; pH 7.0). This gave a final aldehyde concentration of 2 mM and a protein concentration of 0.16 mg/ml. The reaction mixture was incubated at 22 (+2)°C for 60 min with continuous gentle agitation. The immobilised enzyme was washed three times in coupling buffer (10 ml) at 22 (+2)C and resuspended in eight times of its original volume in coupling buffer. Enzyme activity was assayed immediately after washing using trans-cinnamaldehyde (5 mM) as assay substrate with a protein concentration of 0.2 mg/ml.
Horse liver alcohol dehydrogenase or HLADH (50 mg; 1 U/mg) was reacted with swelled CNBr-activated Sepharose 4B (Registered Trade Mark) beads (0.8 g). Approximately 90% of the enzyme was thus immobilised.
The inhibition of the immobilised enzyme (prepared as in Example 4) by aldehydes was tested and compared with the soluble enzyme as described in Example 3. The results were as follows:
(a) assaying using trans-cinnamaldehyde following pre-incubation using a different aldehyde
(b) assaying using the aldehyde used in pre-incubation

Test [4] addresses T1, YADH. The test is described as follows: Example 3 (ii): inhibition of soluble YADH after pre-incubation with aldehyde. The format is biochemical, yeast. Conditions: soluble enzyme; 2 mM aldehyde, 60 min, 22 °C, then dialysis; assayed with trans-cinnamaldehyde (5 mM). On the procedure:
By way of comparison, stock enzyme solution (800 µ1; 0.2 mg protein/ml) was incubated with cinnamaldehyde (200 µ1; 10 mM). This also gave a final aldehyde concentration of 2 mM and a protein concentration of 0.16 mg/ml. The reaction mixture was incubated at 22 (+2)^OC for 60 min with continuous gentle agitation. After incubation, the soluble enzyme was dialysed against coupling buffer (30 ml; 0.lM) at 4°C for 21/2 hours with one change of buffer. Enzyme activity was assayed immediately after dialysis using trans-cinnamaldehyde (5 mM) as assay substrate with a protein concentration of 0.2 mg/ml.

The target in test [5] is T1, YADH. As to the kind of experiment: Example 3 (i): inhibition of immobilised YADH after pre-incubation with aldehyde. Conditions: immobilised enzyme; 2 mM aldehyde, 60 min, 22 °C, then washing; assayed with trans-cinnamaldehyde (5 mM). The format is biochemical, yeast. On the procedure:
YADH (15 mg; 200U/mg) was reacted with swelled CNBr-activated Sepharose 4B (Registered Trade Mark) beads (0.4 g; ex Pharmacia) and coupling carried out in sodium phosphate buffer (0.1M; pH 7.0) containing KCl (0.5 M) for 18 hours at 4°C. Approximately 90% of the enzyme was thus immobilised.
as §1

Setting [6] is: solution of the enzyme incubated with 5 mM aldehyde.

With `OCC=Cc1ccccc1` [cinnamyl alcohol], the inhibitory effect entry in test [1] (even at 8 mM) was “no inhibitory effect”. Regarding `O=Cc1ccccc1O` [salicylaldehyde], the activity in test [2] is on record as 0.57 micromoles NADH/min/mg protein. On to `CC(C)=CCCC(C)=CC=O` [citral], for which the activity in test [2] is 0.91 micromoles NADH/min/mg protein. In turn, `CC(C)=CCCC(C)CC=O` (centres unmarked) [citronellal] came in with an inhibition at 2000 µM in test [3] of 11%. Also, the activity in test [2] is 0.75 micromoles NADH/min/mg protein. Consider `O=CC=Cc1ccccc1` [cinnamaldehyde], for which, in test [1] (setting [6]), the “time to 50% inhibition” value was determined as 12 min and the “time to total inhibition” value is recorded as “about 30 minutes”. The compound also came in with an inhibition at 2000 µM in test [4] of 90%.

As to `O=Cc1ccc(O)cc1` [p-hydroxybenzaldehyde], the activity in test [2] is listed as 0.94 micromoles NADH/min/mg protein. For the compound `O=C/C=C/c1ccccc1` [trans-cinnamaldehyde], in test [5], testing at 2000 µM gave an inhibition of 50%. Further, the activity in test [2] is listed as 1.36 micromoles NADH/min/mg protein. For `CC(C)c1ccc(C=O)cc1` [p-cuminaldehyde], in test [2], the activity is recorded as 0.94 micromoles NADH/min/mg protein. Consider `O=Cc1ccc2c(c1)OCO2` [piperonaldehyde], for which the activity in test [2] is on record as 1.47 micromoles NADH/min/mg protein.

For the compound `COc1ccc(C=O)cc1` [p-anisaldehyde], the activity in test [2] is 1.55 micromoles NADH/min/mg protein.
